Experimental data: patent publication US12679807B2 (MERCK SHARP & DOHME LLC, priority 2020, dated 2026)

target: T1, GCS enzyme contained within Golgi preparations isolated from human A375 malignant melanoma skin cells (Homo sapiens, UniProt Q16739); assay: UDP-Glo glucosylceramide synthase biochemical assay; conditions: crude Golgi preparation from A375 cells; C6 ceramide and UDP-glucose substrates; 20 h incubation at room temperature; UDP detected by luminescence
T1 construct: endogenous levels of GCS enzyme contained within Golgi preparations isolated from human A375 malignant melanoma skin cells; endogenous in cells; host or cells: A375 human malignant melanoma cells (crude Golgi preparation)
T1 sequence (Q16739 1-394): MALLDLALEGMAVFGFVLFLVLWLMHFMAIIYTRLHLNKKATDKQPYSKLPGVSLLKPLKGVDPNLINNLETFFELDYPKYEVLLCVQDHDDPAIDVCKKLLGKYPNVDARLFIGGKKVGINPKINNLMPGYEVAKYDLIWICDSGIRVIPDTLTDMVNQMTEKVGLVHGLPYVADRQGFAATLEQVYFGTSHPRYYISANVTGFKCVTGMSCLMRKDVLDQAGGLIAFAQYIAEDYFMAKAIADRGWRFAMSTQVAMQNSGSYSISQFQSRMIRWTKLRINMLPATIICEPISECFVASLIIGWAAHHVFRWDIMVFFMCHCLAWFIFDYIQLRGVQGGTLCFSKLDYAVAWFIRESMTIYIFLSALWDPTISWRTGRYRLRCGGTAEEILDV
How it was run: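 Endogenous enzyme in A375 Golgi preparations (1.5 μg total protein) was preincubated 30 min with compound, then reacted 20 h at room temperature with UDP-glucose and ceramide.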

EC50 [µM] | SMILES
0.00081 | Cc1nnc(-c2cc(F)c(-c3cccc4c3C(=O)N([C@H](C3CC3)C(C)(C)O)C4)cc2C)o1 [Compound 70, (R)-2-(1-cyclopropyl-2-hydroxy-2-methylpropyl)-7-(2-fluoro-5-methyl-4-(5-methyl-1,3,4-oxadiazol-2-yl)phenyl)isoindolin-1-one]
0.00084 | Cc1nnc(-c2ccc(-c3cccc4c3C(=O)N([C@H](C3CC3)C(C)(C)O)C4)cc2C)o1 [Compound 71, (R)-2-(1-cyclopropy1-2-hydroxy-2-methylpropyl)-7-(3-methyl-4-(5-methyl-1,3,4-oxadiazol-2-yl)phenyl)isoindolin-1-one]
0.00059 | Cc1nnc(-c2ccc(-c3cccc4c3C(=O)N([C@H](C3CC3)C(C)(C)O)C4)c(F)c2C)o1 [Compound 72, (R)-2-(1-cyclopropyl-2-hydroxy-2-methylpropyl)-7-(2-fluoro-3-methyl-4-(5-methyl-1,3,4-oxadiazol-2-yl)phenyl)isoindolin-1-one]
0.055 | CC(C)(O)[C@@H](C1CC1)N1Cc2cccc(-c3cccnc3OCC(F)(F)F)c2C1=O [Compound 73, (R)-2-(1-cyclopropyl-2-hydroxy-2-methylpropyl)-7-(2-(2,2,2-trifluoroethoxy)pyridin-3-yl)isoindolin-1-one]
0.04 | CN1Cc2cc(-c3cccc4c3C(=O)N([C@H](C3CC3)C(C)(C)O)C4)ccc2CC1=O [Compound 74, (R)-7-(2-(1-cyclopropyl-2-hydroxy-2-methylpropyl)-3-oxoisoindolin-4-yl)-2-methyl-1,4-dihydroisoquinolin-3(2H)-one]
0.0088 | COc1cnc2cc(-c3cccc4c3C(=O)N([C@H](C3CC3)C(C)(C)O)C4)ccc2n1 [Compound 75, (R)-2-(1-cyclopropyl-2-hydroxy-2-methylpropyl)-7-(2-methoxyquinoxalin-6-yl)isoindolin-1-one]
0.026 | CCc1nnc(-c2ccc(-c3cccc4c3C(=O)N([C@H](C3CC3)C(C)(C)O)C4)cc2)o1 [Compound 76, (R)-2-(1-cyclopropyl-2-hydroxy-2-methylpropyl)-7-(4-(5-ethyl-1,3,4-oxadiazol-2-yl)phenyl)isoindolin-1-one]
0.039 | CC(C)(O)[C@@H](C1CC1)N1Cc2cccc(-c3ccc(-c4ncco4)cc3)c2C1=O [Compound 77, (R)-2-(1-cyclopropyl-2-hydroxy-2-methylpropyl)-7-(4-(oxazol-2-yl)phenyl)isoindolin-1-one]
0.059 | Cc1noc(-c2ccc(-c3cccc4c3C(=O)N([C@H](C3CC3)C(C)(C)O)C4)cc2)n1 [Compound 78, (R)-2-(1-cyclopropyl-2-hydroxy-2-methylpropyl)-7-(4-(3-methyl-1,2,4-oxadiazol-5-yl)phenyl)isoindolin-1-one]
0.0021 | Cn1nc(-c2cccc3c2C(=O)N([C@H](C2CC2)C(C)(C)O)C3)c2ccccc21 [Compound 79, (R)-2-(1-cyclopropyl-2-hydroxy-2-methylpropyl)-7-(1-methyl-1H-indazol-3-yl)isoindolin-1-one]

Continued, compound first:

SMILES | EC50 [µM]
Cc1nnc(-c2ccc(-c3cccc4c3C(=O)N([C@@H](CO)C3CC3)C4)cc2)o1 [Compound 50, (R)-2-(1-cyclopropyl-2-hydroxyethyl)-7-(4-(5-methyl-1,3,4-oxadiazol-2-yl)phenyl)isoindolin-1-one] | 0.63
Cc1nn(C)c2ccc(-c3c(F)ccc4c3C(=O)N([C@H](C3CC3)C(C)(C)O)C4)cc12 [Compound 55, (R)-2-(1-cyclopropyl-2-hydroxy-2-methylpropyl)-7-(1,3-dimethyl-1H-indazol-5-yl)-6-fluoroisoindolin-1-one] | 0.00018
Cc1nn(C)c2ccc(-c3ccc(F)c4c3C(=O)N([C@H](C3CC3)C(C)(C)O)C4)cc12 [Compound 56, (R)-2-(1-cyclopropyl-2-hydroxy-2-methylpropyl)-7-(1,3-dimethyl-1H-indazol-5-yl)-4-fluoroisoindolin-1-one] | 0.00043
COC(C)(C)[C@@H](C1CC1)N1Cc2cccc(-c3ccc(-c4nnc(C)o4)cc3)c2C1=O [Compound 57, (R)-2-(1-cyclopropyl-2-methoxy-2-methylpropyl)-7-(4-(5-methyl-1,3,4-oxadiazol-2-yl)phenyl)isoindolin-1-one] | 0.26
Cc1nnc(-c2ccc(-c3ccc(O)c4c3C(=O)N([C@H](C3CC3)C(C)(C)O)C4)cc2)o1 [Compound 58, (R)-2-(1-Cyclopropyl-2-hydroxy-2-methylpropyl)-4-hydroxy-7-(4-(5-methyl-1,3,4-oxadiazol-2-yl)phenyl)isoindolin-1-one] | 0.028
Cc1nnc(-c2ccc(-c3c(F)cc(O)c4c3C(=O)N([C@H](C3CC3)C(C)(C)O)C4)cc2)o1 [Compound 59, (R)-2-(1-cyclopropyl-2-hydroxy-2-methylpropyl)-6-fluoro-4-hydroxy-7-(4-(5-methyl-1,3,4-oxadiazol-2-yl)phenyl) isoindolin-1-one] | 0.0099
Cn1cc(-c2ccc(-c3ccc(O)c4c3C(=O)N([C@H](C3CC3)C(C)(C)O)C4)cc2)cn1 [Compound 60, (R)-2-(1-cyclopropyl-2-hydroxy-2-methylpropyl)-4-hydroxy-7-(4-(1-methyl-1H-pyrazol-4-yl)phenyl) isoindolin-1-one] | 0.0094
Cc1cc2c(c(-c3ccc(-c4nnc(C)o4)cc3)c1)C(=O)N([C@H](C1CC1)C(C)(C)O)C2 [Compound 61, (R)-2-(1-Cyclopropyl-2-hydroxy-2-methylpropyl)-5-methyl-7-(4-(5-methyl-1,3,4-oxadiazol-2-yl)phenyl)isoindolin-1-one] | 0.0089
Cc1cnc(-c2ccc(-c3cccc4c3C(=O)N([C@H](C3CC3)C(C)(C)O)C4)cc2)o1 [Compound 64, (R)-2-(1-Cyclopropyl-2-hydroxy-2-methylpropyl)-7-(4-(5-methyloxazol-2-yl)phenyl)isoindolin-1-one] | 0.18
Cc1nnc(-c2ccc(-c3cccc4c3C(=O)N([C@H](C3CC3)C(C)(C)O)C4)cn2)o1 [Compound 65, (R)-2-(1-cyclopropyl-2-hydroxy-2-methylpropyl)-7-(6-(5-methyl-1,3,4-oxadiazol-2-yl)pyridin-3-yl)isoindolin-1-one] | 0.15
Cc1nnc(-c2ncc(-c3cccc4c3C(=O)N([C@H](C3CC3)C(C)(C)O)C4)cc2F)o1 [Compound 66, (R)-2-(1-cyclopropyl-2-hydroxy-2-methylpropyl)-7-(5-fluoro-6-(5-methyl-1,3,4-oxadiazol-2-yl)pyridin-3-yl)isoindolin-1-one] | 0.5
COc1cc(-c2cccc3c2C(=O)N([C@H](C2CC2)C(C)(C)O)C3)ccc1-c1nnc(C)o1 [Compound 67, (R)-2-(1-cyclopropyl-2-hydroxy-2-methylpropyl)-7-(3-methoxy-4-(5-methyl-1,3,4-oxadiazol-2-yl)phenyl)isoindolin-1-one] | 0.012
Cc1nnc(-c2ccc(-c3cccc4c3C(=O)N([C@H](C3CC3)C(C)(C)O)C4)c(F)c2)o1 [Compound 68, (R)-2-(1-cyclopropyl-2-hydroxy-2-methylpropyl)-7-(2-fluoro-4-(5-methyl-1,3,4-oxadiazol-2-yl)phenyl)isoindolin-1-one] | 0.0035
CC(C)(O)[C@@H](C1CC1)N1Cc2cccc(-c3ccc(-n4ccnn4)cc3)c2C1=O [Compound 69, (R)-7-(4-(1H-1,2,3-triazol-1-yl)phenyl)-2-(1-cyclopropyl-2-hydroxy-2-methylpropyl)isoindolin-1-one] | 0.11
